# Assays:
# CCRF-HSB-2 = experiment: Antiproliferative activity against human HSB2 cells by alamar blue assay; type: functional
# Jurkat = experiment: Antiproliferative activity against human Jurkat cells by alamar blue assay; type: functional
# MOLT-4 = experiment: Antiproliferative activity against human MOLT4 cells by alamar blue assay; type: functional
# HuT78 = experiment: Antiproliferative activity against human HUT78 cells by alamar blue assay; type: functional
# [1] = target: T1, Sigma intracellular receptor 2 (Rattus norvegicus, UniProt Q5U3Y7); experiment: Displacement of [3H]-di-o-tolylguanidine from sigma-2 receptor in rat liver membranes after 180 mins by scintillation counting method; type: cell membranes, Membrane
# T1 sequence (Q5U3Y7 whole entry): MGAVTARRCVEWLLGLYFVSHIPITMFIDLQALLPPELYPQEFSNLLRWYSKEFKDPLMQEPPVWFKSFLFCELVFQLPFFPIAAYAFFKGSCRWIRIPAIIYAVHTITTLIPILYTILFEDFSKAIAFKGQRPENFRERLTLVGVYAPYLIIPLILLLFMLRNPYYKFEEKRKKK
# P388 = experiment: Antiproliferative activity against mouse P388 cells; type: functional, cell-based
# [2] = target: Serine/threonine-protein kinase pim-1 (Homo sapiens, UniProt P11309); experiment: Inhibition of PIM1 (unknown origin)
# Chain of Serine/threonine-protein kinase pim-1 (P11309 whole entry): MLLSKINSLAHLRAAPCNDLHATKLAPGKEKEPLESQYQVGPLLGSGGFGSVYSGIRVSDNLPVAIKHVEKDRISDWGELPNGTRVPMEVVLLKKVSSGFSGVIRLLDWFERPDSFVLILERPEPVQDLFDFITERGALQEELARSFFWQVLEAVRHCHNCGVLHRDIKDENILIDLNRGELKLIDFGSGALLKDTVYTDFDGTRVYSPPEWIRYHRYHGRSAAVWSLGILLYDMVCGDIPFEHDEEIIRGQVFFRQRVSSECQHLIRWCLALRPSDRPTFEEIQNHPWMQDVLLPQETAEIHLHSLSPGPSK
# Histone deacetylase 1 = Histone deacetylase 1 (Homo sapiens, UniProt Q13547); experiment: Inhibition of HDAC1 (unknown origin)
# Chain of Histone deacetylase 1 (Q13547 whole entry): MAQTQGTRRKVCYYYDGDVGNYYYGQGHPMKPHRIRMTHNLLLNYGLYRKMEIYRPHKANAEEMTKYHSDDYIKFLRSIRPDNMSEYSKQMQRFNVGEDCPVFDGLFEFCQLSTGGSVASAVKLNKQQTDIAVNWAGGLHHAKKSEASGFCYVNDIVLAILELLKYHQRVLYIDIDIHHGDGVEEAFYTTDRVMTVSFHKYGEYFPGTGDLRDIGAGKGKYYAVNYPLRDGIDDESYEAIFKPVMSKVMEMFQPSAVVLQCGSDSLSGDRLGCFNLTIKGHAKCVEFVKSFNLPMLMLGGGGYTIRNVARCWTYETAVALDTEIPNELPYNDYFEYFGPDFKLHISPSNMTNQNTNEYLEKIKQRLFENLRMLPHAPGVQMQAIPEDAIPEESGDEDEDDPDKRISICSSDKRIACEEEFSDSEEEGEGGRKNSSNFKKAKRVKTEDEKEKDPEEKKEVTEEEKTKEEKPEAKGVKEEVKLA
# LoVo = experiment: Antiproliferative activity against human LoVo cells; type: functional, cell-based
# HCT-116 = experiment: Antiproliferative activity against human HCT116 cells; type: functional, cell-based
# MCF7 [3] = experiment: Antiproliferative activity against human MCF7 cells; type: functional, cell-based
# HepG2 = experiment: Antiproliferative activity against human HepG2 cells; type: functional, cell-based
# K562 = experiment: Antiproliferative activity against human K562 cells; type: functional, cell-based
# MCF7 [4] = experiment: Antiproliferative activity against human MCF7 cells after 72 hrs by SRB assay; type: functional, cell-based; settings: MCF7, 72 h
# [5] = target: Sigma non-opioid intracellular receptor 1 (Cavia porcellus, UniProt Q60492); experiment: Displacement of [3H]-(+)-pentazocine from sigma-1 receptor in guinea pig brain membranes after 180 mins by scintillation counting method; type: cell membranes, Membrane
# Chain of Sigma non-opioid intracellular receptor 1 (Q60492 whole entry): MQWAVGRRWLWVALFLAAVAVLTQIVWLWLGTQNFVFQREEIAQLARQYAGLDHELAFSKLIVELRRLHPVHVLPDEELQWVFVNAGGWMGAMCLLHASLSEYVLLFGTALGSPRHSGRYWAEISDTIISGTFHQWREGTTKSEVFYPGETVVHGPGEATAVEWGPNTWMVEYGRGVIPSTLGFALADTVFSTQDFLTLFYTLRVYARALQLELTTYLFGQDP
# HT-1080 = experiment: Antiproliferative activity against human HT1080 cells; type: functional, cell-based
# MDA-MB-435 = experiment: Antiproliferative activity against human MDA435 cells; type: functional, cell-based
compound,measurement,setting,value
COc1ccc(Cn2ccc3ccc(C(=O)NO)cc32)cc1,GI50,CCRF-HSB-2,2400 to 4000 nM
same,GI50,Jurkat,2400 to 4000 nM
same,GI50,MOLT-4,2400 to 4000 nM
same,GI50,HuT78,2400 to 4000 nM
Fc1ccccc1N1CCN(CCCn2ccc3ccccc32)CC1,Ki,[1],9.9 nM
N[C@@H]1CSCON2CCc3c([nH]c4cc(Br)ccc34)[C@H]12,IC50,P388,0.01 µg/mL
CCN(CC)CCCOc1cc(-c2ccc3[nH]cc(-c4ccnc(N)n4)c3c2)nc(N)n1,IC50,[2],67 nM
COc1ccc2[nH]cc(Cn3cc(COc4ccc(/C=C/C(=O)NO)cc4OC)nn3)c2c1,IC50,Histone deacetylase 1,78 nM
same,IC50,LoVo,3570 to 6210 nM
same,IC50,HCT-116,3570 to 6210 nM
same,IC50,MCF7 [3],3570 to 6210 nM
same,IC50,HepG2,3570 to 6210 nM
same,IC50,K562,3570 to 6210 nM
CN(C)CCCOc1cc(-c2ccc3[nH]cc(-c4ccnc(N)n4)c3c2)nc(N)n1,IC50,[2],58 nM
Cc1cn(CN2CCN(CCc3ccccc3)CC2)c2ccccc12,Ki,[1],55.8 nM
Clc1ccc(CN2CCN(Cc3c[nH]c4ccccc34)CC2)cc1Cl,Ki,[1],≤ 130 nM
same,IC50,MCF7 [4],2920 nM
same,Ki,[5],≤ 130 nM
O=C(CCCCCCNC(=O)c1cc2ccccc2[nH]1)NO,IC50,HT-1080,140 nM
same,IC50,MDA-MB-435,150 nM
